From patent US20230143612A1 (Arbutus Biopharma Corporation, priority 2020, published 2023)

Target: PD-L1 His protein / PD-1 Fc protein (Homo sapiens, UniProt Q9NZQ7)
Assay: HTRF Assay (PD-1/PD-L1 interaction)
Format: binding
Settings: PD-L1 His 6 nM, PD-1 Fc 6 nM
Summary of the method: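 HTRF: PD-L1 His (6 nM final), compound (3-fold dilutions, 20 μM to 0.001 μM final) and PD-1 Fc (6 nM final) preincubated 15 min at room temperature. Anti-human IgG-XL665 and anti-6HIS Tb cryptate (mixed at 6.7 nM and 0.35 nM) then added for 1 h at room temperature before reading.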

PD-L1 His protein / PD-1 Fc protein, sequence (Q9NZQ7 19-238 limits assumed): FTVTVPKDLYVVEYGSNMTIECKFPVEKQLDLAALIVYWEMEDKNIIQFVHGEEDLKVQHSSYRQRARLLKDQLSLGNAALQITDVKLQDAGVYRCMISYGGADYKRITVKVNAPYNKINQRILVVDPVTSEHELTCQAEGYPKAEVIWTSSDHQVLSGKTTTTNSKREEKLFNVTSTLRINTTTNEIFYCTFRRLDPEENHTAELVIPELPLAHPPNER

COc1nc(-c2cccc(-c3cccc(-c4ccn5c(=O)c(CNC[C@@H]6CCC(=O)N6)cnc5c4)c3Cl)c2Cl)ccc1CN[C@H]1C[C@](C)(O)C1 [Example 142, 8-(2,2′-Dichloro-3′-(5-((((1r,3r)-3-hydroxy-3-methylcyclobutyl)amino)methyl)-6-methoxypyridin-2-yl)-[1,1′-biphenyl]-3-yl)-3-(((((S)-5-oxopyrrolidin-2-yl)methyl)amino)methyl)-4H-pyrido[1,2-a]pyrimidin-4-one]
IC50: 1.7 nM

COc1nc(-c2cccc(-c3cccc(-c4ccn5c(=O)c(CN[C@H]6C[C@](C)(O)C6)cnc5c4)c3Cl)c2Cl)ccc1CNC[C@@H]1CCC(=O)N1 [Example 143, 8-(2,2′-Dichloro-3′-(6-methoxy-5-(((((S)-5-oxopyrrolidin-2-yl)methyl)amino)methyl)pyridin-2-yl)-[1,1′-biphenyl]-3-yl)-3-((((1r,3r)-3-hydroxy-3-methylcyclobutyl)amino)methyl)-4H-pyrido[1,2-a]pyrimidin-4-one]
IC50: 1.8 nM

COc1nc(-c2cccc(-c3cccc(-c4ccn5c(=O)c(CN6CC[C@H](O)C6)cnc5c4)c3Cl)c2Cl)ccc1CNC[C@@H]1CCC(=O)N1 [Example 144, 8-(2,2′-Dichloro-3′-(6-methoxy-5-(((((S)-5-oxopyrrolidin-2-yl)methyl)amino)methyl)pyridin-2-yl)-[1,1′-biphenyl]-3-yl)-3-(((S)-3-hydroxypyrrolidin-1-yl)methyl)-4H-pyrido[1,2-a]pyrimidin-4-one]
IC50: 3.1 nM

COc1nc(-c2cccc(-c3cccc(-c4ccn5c(=O)c(CNC[C@@H]6CCC(=O)N6)cnc5c4)c3Cl)c2C#N)ccc1CNC[C@@H]1CCC(=O)N1 [Example 145, 2′-Chloro-3-(6-methoxy-5-(((((S)-5-oxopyrrolidin-2-yl)methyl)amino)methyl)pyridin-2-yl)-3′-(4-oxo-3-(((((S)-5-oxopyrrolidin-2-yl)methyl)amino)methyl)-4H-pyrido[1,2-a]pyrimidin-8-yl)-[1,1′-biphenyl]-2-carbonitrile]
IC50: 2.2 nM

COc1cc(-c2ccc(CNC[C@@H]3CCC(=O)N3)c(OC)n2)c(Cl)c(-c2cccc(-c3ccn4c(=O)c(CNC[C@@H]5CCC(=O)N5)cnc4c3)c2Cl)c1 [Example 146, 8-(2,2′-Dichloro-5′-methoxy-3′-(6-methoxy-5-(((((S)-5-oxopyrrolidin-2-yl)methyl)amino)methyl)pyridin-2-yl)-[1,1′-biphenyl]-3-yl)-3-(((((S)-5-oxopyrrolidin-2-yl)methyl)amino)methyl)-4H-pyrido[1,2-a]pyrimidin-4-one]
IC50: 240 nM

COc1nc(-c2cccc(-c3cccc(-c4ccn5c(=O)c(CNC[C@@H]6CCC(=O)N6)cnc5c4)c3Cl)c2Cl)cc(F)c1CNC[C@@H]1CCC(=O)N1 [Example 147, 8-(2,2′-Dichloro-3′-(4-fluoro-6-methoxy-5-(((((S)-5-oxopyrrolidin-2-yl)methyl)amino)methyl)pyridin-2-yl)-[1,1′-biphenyl]-3-yl)-3-(((((S)-5-oxopyrrolidin-2-yl)methyl)amino)methyl)-4H-pyrido[1,2-a]pyrimidin-4-one]
IC50: 3.9 nM

COc1nc(-c2cccc(-c3cccc(-c4ccn5c(=O)c(CN6C[C@@H](O)C[C@H]6C(=O)O)cnc5c4)c3Cl)c2Cl)ccc1CNC[C@@H]1CCC(=O)N1 [Example 148, (2S,4S)-1-((8-(2,2′-Dichloro-3′-(6-methoxy-5-(((((S)-5-oxopyrrolidin-2-yl)methyl)amino)methyl)pyridin-2-yl)-[1,1′-biphenyl]-3-yl)-4-oxo-4H-pyrido[1,2-a]pyrimidin-3-yl)methyl)-4-hydroxypyrrolidine-2-carboxylic acid]
IC50: 0.4 nM

COc1nc(-c2cccc(-c3cccc(-c4ccn5c(=O)c(CN6C[C@@H](O)C[C@@H]6C(=O)O)cnc5c4)c3Cl)c2Cl)ccc1CNC[C@@H]1CCC(=O)N1 [Example 149, (2R,4S)-1-((8-(2,2′-Dichloro-3′-(6-methoxy-5-(((((S)-5-oxopyrrolidin-2-yl)methyl)amino)methyl)pyridin-2-yl)-[1,1′-biphenyl]-3-yl)-4-oxo-4H-pyrido[1,2-a]pyrimidin-3-yl)methyl)-4-hydroxypyrrolidine-2-carboxylic acid]
IC50: 0.3 nM

COC[C@@H](NCc1cnc2cc(-c3cccc(-c4cccc(-c5ccc(CNC[C@@H]6CCC(=O)N6)c(OC)n5)c4Cl)c3Cl)ccn2c1=O)C(=O)O [Example 150, N-((8-(2,2′-Dichloro-3′-(6-methoxy-5-(((((S)-5-oxopyrrolidin-2-yl)methyl)amino)methyl)-pyridin-2-yl)-[1,1′-biphenyl]-3-yl)-4-oxo-4H-pyrido[1,2-a]pyrimidin-3-yl)methyl)-O-methyl-D-serine]
IC50: 0.3 nM

COc1nc(-c2cccc(-c3cccc(-c4ccn5c(=O)c(CN[C@@H](CO)C(=O)O)cnc5c4)c3Cl)c2Cl)ccc1CNC[C@@H]1CCC(=O)N1 [Example 151, ((8-(2,2′-Dichloro-3′-(6-methoxy-5-(((((S)-5-oxopyrrolidin-2-yl)methyl)amino)methyl)pyridin-2-yl)-[1,1′-biphenyl]-3-yl)-4-oxo-4H-pyrido[1,2-a]pyrimidin-3-yl)methyl)-L-serine]
IC50: 0.3 nM

COc1nc(-c2cccc(-c3cccc(-c4ccn5c(=O)c(CN6CCN7C(=O)CCC7C6)cnc5c4)c3Cl)c2Cl)ccc1CNC[C@@H]1CCC(=O)N1 (stereo partly drawn) [Example 152, 8-(2,2′-Dichloro-3′-(6-methoxy-5-(((((S)-5-oxopyrrolidin-2-yl)methyl)amino)methyl)pyridin-2-yl)-[1,1′-biphenyl]-3-yl)-3-((6-oxohexahydropyrrolo[1,2-a]pyrazin-2(1H)-yl)methyl)-4H-pyrido[1,2-a]pyrimidin-4-one]
IC50: 3.1 nM

COc1nc(-c2cccc(-c3cccc(-c4ccn5c(=O)c(CN6CCCC6CO)cnc5c4)c3Cl)c2Cl)ccc1CNC[C@@H]1CCC(=O)N1 (stereo partly drawn) [Example 153, 8-(2,2′-Dichloro-3′-(6-methoxy-5-(((((S)-5-oxopyrrolidin-2-yl)methyl)amino)methyl)pyridin-2-yl)-[1,1′-biphenyl]-3-yl)-3-((2-(hydroxymethyl)pyrrolidin-1-yl)methyl)-4H-pyrido[1,2-a]pyrimidin-4-one]
IC50: 0.8 nM

COc1nc(-c2cccc(-c3cccc(-c4ccn5c(=O)c(CNC(C)(C)CC(=O)O)cnc5c4)c3Cl)c2Cl)ccc1CNC[C@@H]1CCC(=O)N1 [Example 154, (S)-3-(((8-(2,2′-Dichloro-3′-(6-methoxy-5-((((5-oxopyrrolidin-2-yl)methyl)amino)-methyl)pyridin-2-yl)-[1,1′-biphenyl]-3-yl)-4-oxo-4H-pyrido[1,2-a]pyrimidin-3-yl)methyl)amino)-3-methylbutanoic acid]
IC50: 0.4 nM

COc1cc(-c2cccc(-c3cccc(-c4ccc(CNC[C@@H]5CCC(=O)N5)c(OC)n4)c3Cl)c2Cl)cc2c1CN(C[C@@H]1CCC(=O)N1)CC2 [Example 155, (S)-5-((6-(2,2′-Dichloro-3′-(6-methoxy-5-(((((S)-5-oxopyrrolidin-2-yl)methyl)amino)-methyl)pyridin-2-yl)-[1,1′-biphenyl]-3-yl)-8-methoxy-3,4-dihydroisoquinolin-2(1H)-yl)methyl)pyrrolidin-2-one]
IC50: 0.4 nM

COc1nc(-c2cccc(-c3cccc(-c4ccn5c(=O)cc(CNC[C@@H]6CCC(=O)N6)nc5c4)c3Cl)c2Cl)ccc1CNC[C@@H]1CCC(=O)N1 [Example 156, 8-(2,2′-Dichloro-3′-(6-methoxy-5-(((((S)-5-oxopyrrolidin-2-yl)methyl)amino)methyl)pyridin-2-yl)-[1,1′-biphenyl]-3-yl)-2-(((((S)-5-oxopyrrolidin-2-yl)methyl)amino)methyl)-4H-pyrido[1,2-a]pyrimidin-4-one]
IC50: 1.4 nM

COc1nc(-c2cccc(-c3cccc(-c4ccn5c(=O)c(CNC[C@@H]6CCC(=O)N6)cnc5c4)c3Cl)c2Cl)ccc1CN1CC(C)(O)C1 [Example 157, (S)-8-(2,2′-Dichloro-3′-(5-((3-hydroxy-3-methylazetidin-1-yl)methyl)-6-methoxypyridin-2-yl)-[1,1′-biphenyl]-3-yl)-3-((((5-oxopyrrolidin-2-yl)methyl)amino)methyl)-4H-pyrido[1,2-a]pyrimidin-4-one]
IC50: 1.6 nM

COc1nc(-c2cccc(-c3cccc(-c4ccn5c(=O)c(CNC[C@@H]6CCC(=O)N6)cnc5c4)c3Cl)c2Cl)ccc1CN[C@H]1C[C@H](O)C1 [Example 158, 8-(2,2′-Dichloro-3′-(5-((((1r,3r)-3-hydroxycyclobutyl)amino)methyl)-6-methoxypyridin-2-yl)-[1,1′-biphenyl]-3-yl)-3-(((((S)-5-oxopyrrolidin-2-yl)methyl)amino)methyl)-4H-pyrido[1,2-a]pyrimidin-4-one]
IC50: 2 nM

COc1nc(-c2cccc(-c3cccc(-c4ccn5c(=O)c(CNC[C@@H]6CCC(=O)N6)cnc5c4)c3Cl)c2Cl)ccc1CN1CC(CO)(CO)C1 [Example 159, (S)-8-(3′-(5-((3,3-Bis(hydroxymethyl)azetidin-1-yl)methyl)-6-methoxypyridin-2-yl)-2,2′-dichloro-[1,1′-biphenyl]-3-yl)-3-((((5-oxopyrrolidin-2-yl)methyl)amino)methyl)-4H-pyrido[1,2-a]pyrimidin-4-one]
IC50: 1.3 nM

COc1nc(-c2cccc(-c3cccc(-c4ccn5c(=O)c(CNCCCC(=O)O)cnc5c4)c3Cl)c2Cl)ccc1CNC[C@@H]1CCC(=O)N1 [Example 160, (S)-4-(((8-(2,2′-Dichloro-3′-(6-methoxy-5-((((5-oxopyrrolidin-2-yl)methyl)amino)methyl)pyridin-2-yl)-[1,1′-biphenyl]-3-yl)-4-oxo-4H-pyrido[1,2-a]pyrimidin-3-yl)methyl)amino)butanoic acid]
IC50: 0.7 nM

COc1nc(-c2cccc(-c3cccc(-c4ccn5c(=O)c(C6=NCC(O)CN6)cnc5c4)c3Cl)c2Cl)ccc1CNC[C@@H]1CCC(=O)N1 (stereo partly drawn) [Example 161, 8-(2,2′-Dichloro-3′-(6-methoxy-5-(((((S)-5-oxopyrrolidin-2-yl)methyl)amino)methyl)pyridin-2-yl)-[1,1′-biphenyl]-3-yl)-3-(5-hydroxy-1,4,5,6-tetrahydropyrimidin-2-yl)-4H-pyrido[1,2-a]pyrimidin-4-one]
IC50: 0.1 nM
